{
  "source": "paper PMC12381739",
  "about": "“Druglike Molecular Degraders of the Oncogenic RNA-Binding Protein HuR” (JACS Au, 2025)",
  "key": {"HuR RRM1/2": {"target": "T1, HuR RRM1/2 (Homo sapiens, UniProt Q15717)", "T1 construct": "20 nM of the 5′-FAM RNA probe and 500 nM of HuR RRM1/2", "T1 sequence (Q15717 18-186 limits assumed)": "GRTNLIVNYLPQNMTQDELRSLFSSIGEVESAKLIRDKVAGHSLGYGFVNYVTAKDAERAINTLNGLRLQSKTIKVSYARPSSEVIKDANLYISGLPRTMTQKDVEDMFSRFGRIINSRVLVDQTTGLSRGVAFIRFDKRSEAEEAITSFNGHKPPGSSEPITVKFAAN", "test": "Fluorescence polarization (FP) displacement assay, 5′ FAM-labeled RNA probe from HuR", "settings": "displacement of 5′-FAM RNA probe UAUUUAUUUA (20 nM) from 500 nM HuR RRM1/2; read-out: Binding affinity towards HuR in FP assay (Kd)", "protocol": "Following the synthesis, our initial aim was to ensure that the new derivatives retained their affinity for HuR’s RNA-binding pocket. Thus, a binding evaluation assay was conducted. As previously reported, the RNA-binding pocket of HuR specifically recognizes the UTR sequences of mRNAs, with […] identified as a common binding motif. To evaluate the binding of each degrader, we conducted a fluorescence-based assay utilizing a 5-carboxyfluorescein (5′ FAM)-labeled reporter. This fluorescence polarization (FP) assay is based on the displacement of the 5′ FAM-labeled mRNA from HuR’s RNA-binding pocket, which provides insight into both the binding affinity of the degrader and its capacity to disrupt the HuR-mRNA interaction, thereby serving as a means of validating target engagement. When the 5′ FAM-RNA probe is bound to HuR, it forms a binary complex, resulting in slower rotational movement and a consequently high FP signal. However, when either molecule displaces the 5′ FAM-labeled RNA, the probe is released into the solution, where it undergoes rapid rotation, leading to a significant reduction in the FP signal (Figure S3). This decrease in FP serves as a quantitative measure of the degrader’s ability to compete with mRNA for HuR binding. […] As mentioned above, we synthesized a series of HuR ligand derivatives featuring indole and benzothiophene cores, along with ester and carboxylic acid functional groups.\nAs previously reported, the sequence of the fluorescently labeled (5′-FAM) RNA probe is […]. The assays were performed in PBS buffer (20 mM sodium phosphate, 150 mM NaCl, 1 mM dithiothreitol, 0.05% PLURONIC-127, 15% DMSO) at 293 K. Fluorescence was measured using the Synergy H1 Hybrid Multi-Mode Microplate Reader (Biotek, Agilent) with excitation and emission wavelengths set to 485 and 528 nm, respectively. Each well of a 384-well plate contained 20 nM of the 5′-FAM RNA probe and 500 nM of HuR RRM1/2. Compounds were tested at eight concentrations (0.1 nM–100 μM), with compound 10 serving as a positive control and PBS as the negative control. The protein-mRNA mixture was incubated for 1.5 h to allow for binding interactions. After this incubation, the compounds were added, and the mixture was incubated for an additional hour. The FP emission of the resulting HuR-compound complex was then recorded. The percent inhibition of binding was calculated by comparing the FP values of experimental conditions to the PBS control. The FP value corresponding to the HuR-RNA complex in the presence of DMSO was used as the 100% complexation reference, while the FP value of the labeled RNA alone was set as 0% complexation. The dissociation constant (K d) for the compound-HuR binding interaction was determined by fitting the dose–response curve to specific binding models using Prism 10.2.2. All experiments were performed in triplicate."}, "HuR [1]": {"target": "T2, HuR (Homo sapiens, UniProt Q15717)", "T2 sequence (Q15717 whole entry)": "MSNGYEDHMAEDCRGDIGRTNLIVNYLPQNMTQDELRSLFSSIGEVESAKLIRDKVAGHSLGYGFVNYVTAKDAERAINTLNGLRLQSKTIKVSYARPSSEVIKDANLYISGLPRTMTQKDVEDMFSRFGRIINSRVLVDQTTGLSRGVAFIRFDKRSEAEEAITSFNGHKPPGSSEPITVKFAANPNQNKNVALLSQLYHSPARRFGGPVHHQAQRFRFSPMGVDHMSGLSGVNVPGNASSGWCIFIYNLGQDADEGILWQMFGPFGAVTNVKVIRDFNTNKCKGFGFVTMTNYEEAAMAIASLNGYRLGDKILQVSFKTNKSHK", "test": "HuR protein expression by western blot in MDA-MB-231 cells", "type": "cell-based", "design": "endogenous in cells", "settings": "48 h", "protocol": "Total protein was extracted using RIPA cell lysis buffer (BioPrep) containing a protease inhibitor, and protein concentration was measured using the BCA protein assay (Sigma-Aldrich) according to the manufacturer’s protocol. Approximately 30 μg of total protein were resolved on a 12% SDS-acrylamide gel and transferred to a PVDF membrane (Immobilon FL transfer membrane; Merck). The membrane was washed with 1× Tris-buffered saline (TBS) containing 0.1% (v/v) Tween-20 (TBST; Tris-base, pH 7.6, NaCl, and Tween-20) and blocked in 1× TBST containing 5% (w/v) BSA for 2 h at room temperature. The membrane was then incubated overnight at 4 °C with primary antibodies: a 1:1000 dilution of rabbit anti-ELAVL1/HuR (Cell Signaling Technology, #12582), a 1:1000 dilution of mouse anti-Bcl2 (Cell Signaling Technology, #15071), or a 1:10,000 dilution of rabbit anti-Vinculin (Cell Signaling Technology, #13901) in 1× TBST containing 5% (w/v) BSA. Following primary antibody incubation, the membrane was washed with 1× TBST and incubated with a 1:10,000 dilution of the appropriate horseradish-peroxidase-conjugated secondary antibody (antirabbit IgG: Cell Signaling, #7074 or antimouse IgG: Cell Signaling, #7076) at room temperature for 2 h. […] The fold change in the expression of the target proteins (HuR or Bcl2) was calculated by normalizing the band intensity to the Vinculin band intensity using ImageJ."}, "HuR [2]": {"target": "T2, HuR", "test": "HuR protein expression by western blot in MCF-7 cells", "type": "cell-based", "design": "endogenous in cells; host or cells: MCF-7", "text": "Michigan Cancer Foundation-7 (MCF-7) cells were chosen due to their documented overexpression of HuR, which has been linked to cancer pathogenicity in this specific cell line. , Consequently, reducing HuR expression to physiologically normal levels is considered a potential strategy for novel anticancer therapies targeting breast cancers associated with HuR overexpression.\nTotal protein was extracted using RIPA cell lysis buffer (BioPrep) containing a protease inhibitor, and protein concentration was measured using the BCA protein assay (Sigma-Aldrich) according to the manufacturer’s protocol. Approximately 30 μg of total protein were resolved on a 12% SDS-acrylamide gel and transferred to a PVDF membrane (Immobilon FL transfer membrane; Merck). The membrane was washed with 1× Tris-buffered saline (TBS) containing 0.1% (v/v) Tween-20 (TBST; Tris-base, pH 7.6, NaCl, and Tween-20) and blocked in 1× TBST containing 5% (w/v) BSA for 2 h at room temperature. The membrane was then incubated overnight at 4 °C with primary antibodies: a 1:1000 dilution of rabbit anti-ELAVL1/HuR (Cell Signaling Technology, #12582), a 1:1000 dilution of mouse anti-Bcl2 (Cell Signaling Technology, #15071), or a 1:10,000 dilution of rabbit anti-Vinculin (Cell Signaling Technology, #13901) in 1× TBST containing 5% (w/v) BSA. Following primary antibody incubation, the membrane was washed with 1× TBST and incubated with a 1:10,000 dilution of the appropriate horseradish-peroxidase-conjugated secondary antibody (antirabbit IgG: Cell Signaling, #7074 or antimouse IgG: Cell Signaling, #7076) at room temperature for 2 h. After washing three times with 1X TBST (10 min per wash), protein bands were visualized using Clear Band ECL Substrate (Gene Bio-Application) on the Azure C300 Imaging System. The fold change in the expression of the target proteins (HuR or Bcl2) was calculated by normalizing the band intensity to the Vinculin band intensity using ImageJ."}},
  "data": [
    {"smiles": "O=C1CCC(N2C(=O)c3cccc(NCc4cn(-c5ccc6sc(C(=O)O)cc6c5)nn4)c3C2=O)C(=O)N1", "note": "(centres unmarked) [PRO-HuR3]", "values": [
      {"measurement": "Kd", "setting": "HuR RRM1/2", "result": 30, "unit": "nM"},
      {"measurement": "reduction of HuR expression", "setting": "HuR [1]; MDA-MB-231, 10 nM", "result": 38, "unit": "%"},
      {"measurement": "reduction of HuR expression", "setting": "HuR [1]; MDA-MB-231, 10 μM", "result": "~75", "unit": "%"},
      {"measurement": "reduction of HuR expression", "setting": "HuR [2]; MCF-7, 10 nM, 48 h", "result": 42, "unit": "%"},
      {"measurement": "onset of activity (HuR degradation)", "setting": "HuR [2]; MCF-7, 10 μM", "result": 48, "unit": "h"},
      {"measurement": "time-dependent response of HuR degradation", "setting": "HuR [2]; MCF-7, 10 μM", "result": "showed a time-dependent response"},
      {"measurement": "reduction of HuR expression", "setting": "HuR [2]; MCF-7, 10 μM, 48 h", "result": "~75", "unit": "%"},
      {"measurement": "degrader activity at intermediate concentration (hook effect)", "setting": "HuR [2]; around 0.1 μM, 48 h, MCF-7 and MDA-MB-231", "result": "loss of degrader activity"}
    ]}
  ]
}
